{"source": "PubChem BioAssay AID493102", "about": "(Broad Institute, 2011)", "data": [{"tested_on": "SK-MEL-5 TRPM1-promoter luciferase reporter, 24 h", "test": "TRPM1 promoter luciferase signal decrease, dose response, MITF inhibitor project, cell-based, SK-MEL-5, cherry-picked, set 4 (AID 493102);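 note: actives lower the luciferase signal so the potency reflects inhibition of reporter expression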", "units": {"AC50": "µM"}, "values": [{"smiles": "CCOc1cc(NC(=O)CCl)c(OCC)cc1NC(=O)CCl", "AC50": 5.5}, {"smiles": "O=C(Nc1ccc(S(=O)(=O)N2CCCCCC2)cc1)c1[nH]ncc1[N+](=O)[O-]", "AC50": 4.02}, {"smiles": "C/C(=N\\NC(=O)C(C)Oc1ccc([N+](=O)[O-])cc1)c1ccccn1", "note": "(stereo not given)", "AC50": 2.39}, {"smiles": "CC(C)n1c(O)c(C2c3cc(Cl)ccc3Oc3[nH]c(=O)n(C(C)C)c(=O)c32)c(=O)[nH]c1=O", "note": "(stereo not given)", "AC50": 5.39}, {"smiles": "O=C(COC(=O)c1ccc[nH]c1=O)Nc1ccc(N2CCCCC2)cc1", "AC50": 1.03}, {"smiles": "CC(C)C(CCNC1CCN(C)CC1)c1ccc(Cl)cc1", "note": "(stereo not given)", "AC50": 11.9}, {"smiles": "N=c1n(CC(=O)c2ccc(Br)s2)c2ccccc2n1Cc1ccccc1", "AC50": 7.34}, {"smiles": "C=C1CCC[C@]2(C)C[C@H]3OC(=O)C(CN4CCCCC4CO)[C@H]3CC12", "note": "(stereo not given in full)", "AC50": 11}, {"smiles": "c1ccc(C[n+]2cccc3c4ccccc4ccc32)cc1", "AC50": 3.41}, {"smiles": "CCOCCCNC(=O)/C(C#N)=C/c1ccc(Cl)c([N+](=O)[O-])c1", "AC50": 7.38}, {"smiles": "Cc1ccc(-c2cc3onc(-c4ccccc4)c3c(=O)n2C)cc1", "AC50": 9.77}, {"smiles": "O=C1C(Cl)=C(Nc2ccccc2)C(=O)c2ccccc21", "AC50": 2.88}, {"smiles": "O=[N+]([O-])c1ccc(/C=N/N=C/c2ccc([N+](=O)[O-])o2)o1", "AC50": 9.36}, {"smiles": "C/C(=N/NC(=O)C(O)(c1ccccc1)c1ccccc1)c1ccc([N+](=O)[O-])o1", "AC50": 9.84}, {"smiles": "Nc1c(N(CCC2=CCCCC2)C(=O)COc2ccc([N+](=O)[O-])cc2)c(=O)[nH]c(=O)n1Cc1ccccc1", "AC50": 14.2}, {"smiles": "CCOC(=O)C(=Cc1ccc(-n2ccnc2)cc1)C(=O)OCC", "AC50": 9.38}, {"smiles": "CNC(=O)COC(=O)c1ccccc1C(=O)c1ccc(Cl)c([N+](=O)[O-])c1", "AC50": 9.77}, {"smiles": "OC(CNCC(c1ccc(Cl)cc1Cl)c1c[nH]c2ccccc12)c1ccccc1", "note": "(stereo not given)", "AC50": 14.7}, {"smiles": "CCCCN1C=CC(=C2C(=O)c3ccccc3C2=O)C=C1", "AC50": 0.921}, {"smiles": "O=C(CSc1ccc(Cl)cc1)NC1CCCC1", "AC50": 14.2}, {"smiles": "O=C(N/N=C/c1ccc([N+](=O)[O-])o1)c1ccc(O)cc1", "AC50": 5.2}, {"smiles": "COc1cccc2c1C(=O)C=C(C)C2=O", "AC50": 7.83}, {"smiles": "CCCC(=O)N1CCN(c2ccc(NC(=O)c3ccc([N+](=O)[O-])o3)cc2Cl)CC1", "AC50": 7.65}, {"smiles": "CC(=O)Nc1ccc(S(=O)(=O)N2CCn3cccc3C2C)cc1", "note": "(stereo not given)", "AC50": 28.7}, {"smiles": "Cc1ccc(-c2c[n+](Cc3ccc(Cl)cc3)c3n2CCC3)cc1", "AC50": 14.2}, {"smiles": "COc1ccc(-n2c(C)cc(C(=O)CCl)c2C)cc1", "AC50": 6.44}, {"smiles": "CN(Cc1ccccc1)C1=CC(=[N+]2CCCCC2)CC(C)(C)C1", "AC50": 2.46}, {"smiles": "O=C(Nc1ccc(-c2nc3ncccc3o2)cc1)c1ccc([N+](=O)[O-])o1", "AC50": 3.63}, {"smiles": "CC(C)c1ccc(/C=C2\\SC(=S)N(CCC(=O)N3CCCCC3CCO)C2=O)cc1", "note": "(stereo not given)", "AC50": 7.43}, {"smiles": "CC(C)(C)c1ccc(-c2cc(N)n[nH]2)cc1", "AC50": 0.511}, {"smiles": "COc1cccc(C(=O)N/N=C(/c2ccccc2)c2ccccn2)c1", "AC50": 5.8}, {"smiles": "CCOc1ccc(-n2c(C)cc(C(=O)CCl)c2C)cc1", "AC50": 4.59}, {"smiles": "CC1(C)Cc2ccccc2C2=NNC(=O)C2=N1", "AC50": 3.62}, {"smiles": "Cc1cc(Sc2ncnc(N)c2[N+](=O)[O-])ncn1", "AC50": 7.61}, {"smiles": "COc1ccc(S(=O)(=O)Nc2ccc(O)c3ccccc23)cc1", "AC50": 9.07}, {"smiles": "O=C(CCCN1C(=O)S/C(=C\\c2ccccc2)C1=O)NNC(=O)c1ccccc1O", "AC50": 33.9}, {"smiles": "CN1C/C(=C/c2cccnc2)C(=O)/C(=C/c2cccnc2)C1", "AC50": 5.31}, {"smiles": "COc1cc(OC)cc(-c2oc(=O)c3cc(OC)c(OC)cc3c2C(F)(F)F)c1", "AC50": 12.8}, {"smiles": "CC(C)C1CC(CCNCc2ccc(N(C)C)cc2)(c2ccccc2)CCO1", "note": "(stereo not given)", "AC50": 11.1}, {"smiles": "CCC(=O)OCCNc1cc(Sc2nccn2C)c2nonc2c1[N+](=O)[O-]", "AC50": 7.16}, {"smiles": "CC(C)[C@H](NC(=O)OC(C)(C)C)c1nnc(S(=O)(=O)Cc2c(F)cccc2Cl)o1", "AC50": 11.6}, {"smiles": "O=C(O)c1cc2ccccc2c(N=Nc2cccnc2)c1O", "AC50": 11.4}, {"smiles": "CCCC(=O)NC(c1ccc(OC)c(OC)c1)c1cc(Cl)c2cccnc2c1O", "note": "(stereo not given)", "AC50": 9.06}, {"smiles": "COc1ccccc1N1C(=O)N(C(C)=O)C2C1Nc1ccccc1N2C", "note": "(stereo not given)", "AC50": 10.5}, {"smiles": "COc1cc(C(=O)N/N=C(\\c2ccccc2)c2ccccn2)cc(OC)c1OC", "AC50": 13.8}]}]}
